# Assays:
# Assay in all cases: Cysteine liganding, probe competition
# Type in all cases: binding
# [1] = biological target: T1, RPN1 Dolichyl-diphosphooligosaccharide--protein glycosy (Homo sapiens, UniProt P04843)
# T1 construct: Cells were resuspended in cold PBS on ice and sonicated with a probe sonicator to achieve lysis; endogenous in cells
# T1 sequence (P04843 24-607): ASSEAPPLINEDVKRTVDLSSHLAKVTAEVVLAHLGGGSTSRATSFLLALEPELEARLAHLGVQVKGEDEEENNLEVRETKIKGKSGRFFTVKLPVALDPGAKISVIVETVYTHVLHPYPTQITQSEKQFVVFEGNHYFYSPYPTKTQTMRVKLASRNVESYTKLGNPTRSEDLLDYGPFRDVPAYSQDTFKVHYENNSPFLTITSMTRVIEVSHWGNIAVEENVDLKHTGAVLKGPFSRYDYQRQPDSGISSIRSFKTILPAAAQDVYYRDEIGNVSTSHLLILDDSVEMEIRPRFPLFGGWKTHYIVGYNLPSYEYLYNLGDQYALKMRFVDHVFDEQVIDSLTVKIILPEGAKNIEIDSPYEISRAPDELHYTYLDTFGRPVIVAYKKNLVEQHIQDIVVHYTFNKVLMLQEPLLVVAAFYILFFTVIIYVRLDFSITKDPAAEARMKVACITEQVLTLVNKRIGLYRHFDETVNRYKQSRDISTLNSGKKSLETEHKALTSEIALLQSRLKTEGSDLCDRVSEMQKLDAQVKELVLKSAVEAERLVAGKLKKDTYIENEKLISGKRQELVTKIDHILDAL
# Procedure, shortened: (§1)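 Probe competition in native proteome: 5 mg/ml lysate, compound 1 hr 25° C, then desthiobiotin iodoacetamide (10 mM stock) 1 hr 25° C; acetone ppt, urea/DTT reduction, iodoacetamide alkylation, trypsin, streptavidin pull-down.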
# [2] = biological target: T2, MAPK8 Mitogen-activated protein kinase 8 (Homo sapiens, UniProt P45983); conditions: for 100 Max / 100 ave / 500 ave / 500 Max: uniprot P45983; for 500 Max: in % (unit assumed)
# T2 construct: Cells were resuspended in cold PBS on ice and sonicated with a probe sonicator to achieve lysis; endogenous in cells
# Procedure, shortened: as §1
# RNF7 RING-box protein 2 = biological target: T3, RNF7 RING-box protein 2 (Homo sapiens, UniProt Q9UBF6)
# T3 construct: Cells were resuspended in cold PBS on ice and sonicated with a probe sonicator to achieve lysis; endogenous in cells
# T3 sequence (Q9UBF6 1-113): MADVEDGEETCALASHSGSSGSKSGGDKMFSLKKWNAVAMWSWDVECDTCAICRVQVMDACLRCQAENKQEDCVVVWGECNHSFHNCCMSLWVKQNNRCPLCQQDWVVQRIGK
# Procedure, shortened: as §1
# T2 sequence (P45983 whole entry): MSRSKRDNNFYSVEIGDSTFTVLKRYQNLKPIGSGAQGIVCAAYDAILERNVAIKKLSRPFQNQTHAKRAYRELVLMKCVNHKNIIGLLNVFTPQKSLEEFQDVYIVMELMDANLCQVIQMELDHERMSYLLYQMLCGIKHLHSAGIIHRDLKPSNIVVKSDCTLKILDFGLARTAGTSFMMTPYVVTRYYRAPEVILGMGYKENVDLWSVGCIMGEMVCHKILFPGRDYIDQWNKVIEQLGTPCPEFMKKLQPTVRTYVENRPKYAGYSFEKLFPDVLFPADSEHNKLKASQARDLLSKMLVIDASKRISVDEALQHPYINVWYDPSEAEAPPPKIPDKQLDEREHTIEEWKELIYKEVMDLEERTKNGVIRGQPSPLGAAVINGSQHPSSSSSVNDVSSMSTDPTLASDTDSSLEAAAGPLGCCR
SMILES,"Liganded ([1]; RPN1 Res# 477, uniprot P04843)","Liganded ([2]; MAPK8 Res# 245, uniprot P45983)",100 Max [2],100 ave [2],500 ave [2],500 Max [2],"Liganded (RNF7 RING-box protein 2; RNF7 Res# 88, uniprot Q9UBF6)",100 Max ([1]; uniprot P04843),100 ave ([1]; uniprot P04843),500 ave ([1]; uniprot P04843),"500 Max ([1]; uniprot P04843, in % (unit assumed))",100 Max (RNF7 RING-box protein 2; uniprot Q9UBF6),100 ave (RNF7 RING-box protein 2; uniprot Q9UBF6)
COc1ccc2c(c1)CCCN2C(=O)CCl [KB02],YES,YES,44.42,26.11,76.89,78.63,YES,–,–,–,–,–,–
O=C(CCl)Nc1cc(C(F)(F)F)cc(C(F)(F)F)c1 [KBO3],–,–,17.22,12.33,40.875,44.06,–,9.24,−5.035,23.85,28.71,20.4,20.4

# From US20200239530A1, “COMPOUNDS AND METHODS OF MODULATING PROTEIN DEGRADATION” (Vividion Therapeutics, Inc., priority 2017, published 2020)
